Data: patent publication US20240245641A1, “PHARMACEUTICAL COMPOSITION FOR PREVENTING OR TREATING DIABETES MELLITUS IN ANIMAL OF FAMILY CANIDAE, COMPRISING ENAVOGLIFLOZIN” (DAEWOONG PHARMACEUTICAL CO., LTD., priority 2021, published 2024)

Columns and labels:
[1] = test system: dogs with insulin-dependent diabetes mellitus (type 1 diabetes mellitus); assay: Evaluation of side effects after administration of enavogliflozin with insulin (disease activity index, cystitis, hypoglycemia); assay type: in vivo, dog
Description: (§1) This study evaluated the safety and efficacy of enavogliflozin along with insulin therapy in dogs with insulin-dependent diabetes mellitus (type 1 diabetes mellitus) as a prospective, open-label, non-randomized, multicenter, and proof-of-concept study. The efficacy and safety of enavogliflozin were evaluated at predetermined times during the treatment period.
(§2) Diabetic dogs meeting the following criteria were allowed to participate in a clinical trial: Small dogs under 15 years of age (less than 10 kg), medium-sized dogs under 13 years of age (11 to 22 kg), stable basal dose insulin therapy at least 1 month prior to the screening visit, post-insulin nadir (Nadir) blood glucose minimum of 200 mg/dl, and blood ketone levels less than 0.6 mmol/L.
(§3) However, diabetic dogs meeting the following criteria were excluded: Dogs with chronic kidney disease (CKD IRIS stage >2), hypotension evaluation, administration of diuretics or related drugs, confirmed pregnancy, and taking drugs affecting the test within 14 days prior to test start.
(§4) The study was performed for 8 weeks, and dogs participating in the clinical trial were divided into two groups, a TOD test group and a SID test group, according to the dose of enavogliflozin administered. Enavogliflozin was administered to the TOD test group and the SID test group at a dose of 0.025 mg/kg once every 3 days and once a day, respectively. For proper evaluation, the dogs were administered the drug with breakfast, and after dosing was completed, dogs underwent physical examinations such as blood pressure, blood tests and urine tests. Thereafter, researchers adjusted insulin doses to meet target blood glucose levels during monitoring (Nadir glucose levels, 80 to 150 mg/dl).
(§5) A primary evaluation variable was whether blood fructosamine levels decreased without developing severe hypoglycemia or diabetic ketoacidosis (DKA) after the animals were randomly divided into groups. […] The diagnosis of diabetic ketoacidosis was evaluated based on the presence of anion-gap metabolic acidosis associated with excessive ketogenesis without other causes. […]

[2] = test system: dogs with insulin-dependent diabetes mellitus (type 1 diabetes mellitus); assay: Evaluation of body weight and blood pressure after administration of enavogliflozin; assay type: in vivo, dog
Description: as §1, §2, §3, §4, §5

[3] = test system: dogs with insulin-dependent diabetes mellitus (type 1 diabetes mellitus); assay: Evaluation of renal function (blood and urine tests) after administration of enavogliflozin; assay type: in vivo, dog; conditions: after 8 weeks treatment, mean ± S.D
Description: as §1, §2, §3, §4
(§6) A primary evaluation variable was whether blood fructosamine levels decreased without developing severe hypoglycemia or diabetic ketoacidosis (DKA) after the animals were randomly divided into groups. A secondary evaluation variable was a change in fasting blood glucose levels, body weight and a mean bolus dose of insulin from baseline to 8 weeks. […] The diagnosis of diabetic ketoacidosis was evaluated based on the presence of anion-gap metabolic acidosis associated with excessive ketogenesis without other causes. Safety information including data on clinical and laboratory values and side effects was collected at each study visit.
(§7) Differences before and after drug administration within the groups were compared using the Student paired t-test or the Wilcoxon rank test. Furthermore, differences between groups after drug administration through a mixed ANOVA test were confirmed. Statistical analysis was performed with the R programming language (https://cran.r-project.org/) and GraphPad Prism version 7 (GraphPad Software, Inc., La Jolla, California). A p-value less than 0.05 was considered statistically significant.
Changes in renal function before and after administration of enavogliflozin were confirmed through blood and urine tests. Blood test items include blood urea nitrogen (BUN), creatinine, symmetric di-methyl-arginine (SDMA), cystatin-C, beta-2-microglobulin (B2M) and N-acetyl-β-d-glucosaminidase (NAG). Urinalysis items include urine specific gravity (USG) and urine protein to creatinine (UPC) ratio.

[4] = test system: dogs with insulin-dependent diabetes mellitus (type 1 diabetes mellitus); assay: Evaluation of metabolic acidosis after administration of enavogliflozin; assay type: in vivo, dog; conditions: for Anion Gap / HCO3 / Ketone (blood) / LDH / pH (venous blood gas): after 8 weeks treatment, mean ± S.D
Description: as §1, §2, §3, §4, §6, §7
In addition, when lactate dehydrogenase (LDH) was measured, there was no significant change in both test groups compared to before administration. Blood pH, bicarbonate (HCO3), and the anion gap were confirmed by a venous blood gas test, and there was no significant difference before and after administration (Table 4). […] In Table 4, all values are expressed as mean±S.D, and p-values less than 0.05 were considered statistically significant.

[5] = test system: dogs with insulin-dependent diabetes mellitus (type 1 diabetes mellitus); assay: Evaluation of lipid metabolism after administration of enavogliflozin; assay type: in vivo, dog; conditions: after 8 weeks treatment, mean ± S.D
Description: as §1, §2, §3, §4, §6, §7
Blood cholesterol was measured to confirm the effect of enavogliflozin on lipid metabolism. Changes in triglycerides and total cholesterol (T-Chol) were not statistically significant. […] In Table 5, all values are expressed as mean±S.D, and p-values less than 0.05 were considered statistically significant.

[6] = test system: dogs with insulin-dependent diabetes mellitus (type 1 diabetes mellitus); assay: Evaluation of regulation of blood glucose after 8 weeks of enavogliflozin with insulin; assay type: in vivo, dog
Description: as §1, §2, §3, §4, §6, §7
The regulation of blood glucose before and after administration was confirmed through blood tests (fructosamine and fasting glucose) and the daily insulin dose. […] However, fructosamine concentration was improved (p=0.041). […] In addition, as a result of comparing the difference between the test groups at 8 weeks, there was no significant difference in fasting blood glucose, fructosamine, and insulin reduction rate. However, there was a tendency towards a decrease in the SID test group taking enavogliflozin once a day compared to the TOD test group taking enavogliflozin once every 3 days (FIGS. 2A to 2C).

[7] = test system: dogs with insulin-dependent diabetes mellitus (type 1 diabetes mellitus); assay: Long-term effectiveness, enavogliflozin with insulin for up to 6 months; assay type: in vivo, dog
Description: In addition, long-term effectiveness was confirmed by additionally administering enavogliflozin to the companion dogs participating in the clinical trial at the same usage and dosage (SID or TOD) for up to 6 months.
as §7
Furthermore, as a result of confirming the long-term effectiveness by administering enavogliflozin at the same usage and dose for up to 6 months, fasting blood glucose, fructosamine and insulin reduction rate were improved in all SID/TOD test groups.

human SGLT2 = molecular target: T1, human SGLT2 (Homo sapiens, UniProt P31639); conditions: disclosed in U.S. Patent Publication No. 2015/0152075; cited from earlier work
T1 sequence (P31639 1-672): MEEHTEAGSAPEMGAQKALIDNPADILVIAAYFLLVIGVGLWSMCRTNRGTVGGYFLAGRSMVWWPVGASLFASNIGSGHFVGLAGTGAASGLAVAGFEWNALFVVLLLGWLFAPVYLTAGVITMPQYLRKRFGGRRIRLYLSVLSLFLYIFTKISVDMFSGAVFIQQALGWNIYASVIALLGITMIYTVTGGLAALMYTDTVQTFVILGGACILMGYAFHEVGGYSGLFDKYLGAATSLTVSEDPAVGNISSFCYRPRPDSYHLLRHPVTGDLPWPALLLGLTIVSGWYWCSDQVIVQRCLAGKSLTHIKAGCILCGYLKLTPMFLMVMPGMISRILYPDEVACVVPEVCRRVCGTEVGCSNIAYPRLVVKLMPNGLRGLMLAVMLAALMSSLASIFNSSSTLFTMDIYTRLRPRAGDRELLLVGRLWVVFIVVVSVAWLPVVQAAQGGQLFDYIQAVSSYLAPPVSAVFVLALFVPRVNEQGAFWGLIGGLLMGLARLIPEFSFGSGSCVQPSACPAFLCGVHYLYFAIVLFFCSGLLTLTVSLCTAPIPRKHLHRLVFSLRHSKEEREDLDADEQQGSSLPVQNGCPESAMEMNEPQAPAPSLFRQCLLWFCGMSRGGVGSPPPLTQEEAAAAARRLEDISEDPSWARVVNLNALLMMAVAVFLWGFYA

[8] = both groups (TOD and SID), 0.025 mg/kg with insulin, 8 weeks
[9] = SID test group, 0.025 mg/kg once a day with insulin
[10] = TOD test group, 0.025 mg/kg once every 3 days with insulin
[11] = TOD test group, 0.025 mg/kg once every 3 days with insulin, 8 weeks
[12] = SID administration group, 0.025 mg/kg once a day with insulin, up to 6 months (p<0.0234)

For `OC[C@H]1O[C@@H](c2cc(Cc3ccc(C4CC4)cc3)c(Cl)c3c2CCO3)[C@H](O)[C@@H](O)[C@@H]1O` [enavogliflozin], the “new cases of bacterial cystitis” value ([1]; any test group (TOD, SID), 8 weeks) was “no new cases”, the “disease activity index (appetite, activity, stool status)” value ([1]; dog, in vivo) was “no difference between before and after administration” and the “severe hypoglycemia leading to loss of consciousness or seizures” value ([1]; dog, in vivo) was “no severe hypoglycemia”. For the same compound, the “Blood pressure (systolic), change after administration” value ([2]; SID test group, 0.025 mg/kg once a day with insulin, 8 weeks (p=0.033)) was “significantly reduced”, the “BCS (body condition score), change after administration” value [2, 8] was “no difference” and the “Body weight, change after administration” value [2, 8] was “tended to decrease”. For the same compound, the BUN ([3]; SID test group (n = 8), 0.025 mg/kg once a day with insulin) was 21.9 ± 6.8 mg/dL, the Creatinine [3, 9] was 0.6 ± 0.1 mg/dL and the Cystatin-C [3, 9] was 0.5 ± 0.1 mg/L. For the same compound, the NAG [3, 9] was 9.0±4.3 U/g, the SDMA [3, 9] was 7.8 ± 1.4 µg/dL and the “UPC (urine protein to creatinine ratio)” value [3, 9] was 1.1±1.6. The “USG (urine specific gravity)” value [3, 9] was 1.043±0.008, the BUN ([3]; TOD test group (n = 10), 0.025 mg/kg once every 3 days with insulin) was 22.5 ± 11.7 mg/dL and the Creatinine [3, 10] was 0.9 ± 0.2 mg/dL. It also gave a Cystatin-C [3, 10] of 0.5 ± 0.2 mg/L, an NAG [3, 10] of 7.6±5.8 U/g and an SDMA [3, 10] of 9.2 ± 5.5 µg/dL. The “UPC (urine protein to creatinine ratio)” value [3, 10] was 1.1±1.8, the “USG (urine specific gravity)” value [3, 10] was 1.034±0.011 and the “Anion Gap” value [4, 9] was 13.2 ± 4.5 mmol/L. For the same compound, the HCO3 [4, 9] was 25.0 ± 2.5 mmol/L, the “Ketone (blood)” value [4, 9] was 0.4 ± 0.1 mmol/L and the LDH [4, 9] was 230.8 ± 79.6 U/L. The “pH (venous blood gas)” value [4, 9] was 7.4 ± 0.1, the “Anion Gap” value [4, 10] was 12.0 ± 4.2 mmol/L and the HCO3 [4, 10] was 24.3 ± 3.6 mmol/L. For the same compound, the “Ketone (blood)” value [4, 10] was 0.2 ± 0.1 mmol/L, the LDH [4, 10] was 444.5 ± 584.7 U/L and the “pH (venous blood gas)” value [4, 10] was 7.4 ± 0.1. For the same compound, the diabetic ketoacidosis ([4]; both test groups, eight weeks after administration) was “did not occur”, the Lipase [5, 9] was 226.8 ± 215.0 U/L and the “T-Chol (total cholesterol)” value [5, 9] was 261.3 ± 150.5 mg/dL. For the same compound, the Triglyceride [5, 9] was 515.2 ± 977.9 mg/dL, the Lipase [5, 10] was 197.3 ± 230.1 U/L and the “T-Chol (total cholesterol)” value [5, 10] was 327.6 ± 114.7 mg/dL. It also gave a Triglyceride [5, 10] of 384.9 ± 425.3 mg/dL, a daily insulin dose ([6]; SID test group, 0.025 mg/kg once a day with insulin, after 8 weeks (before: 2.0±0.8)) of 1.5±0.5 units/kg/day and a fasting blood glucose ([6]; SID test group, 0.025 mg/kg once a day with insulin, after 8 weeks (before: 330.8±118.0; p=0.0078)) of 215.5 ± 126.2 mg/dL. The fructosamine levels ([6]; SID test group, 0.025 mg/kg once a day with insulin, after 8 weeks (before: 475.3±107.6; p=0.034)) was 393.1 ± 122.9 µmol/L, the “daily insulin dose, change before/after administration” value [6, 11] was “decreased, but the difference was not statistically significant” and the “fasting blood glucose, change before/after administration” value [6, 11] was “decreased, but the difference was not statistically significant”. The “fructosamine concentration, change before/after administration” value ([6]; TOD test group, 0.025 mg/kg once every 3 days with insulin, 8 weeks (p=0.041)) was “improved”, the “fasting blood glucose, 6 months” value [7, 12] was “statistically significant reduction” and the “insulin reduction rate, 6 months” value [7, 12] was “statistically significant reduction”. For the same compound, the “fructosamine, 6 months” value ([7]; TOD test group, 0.025 mg/kg once every 3 days with insulin, up to 6 months (p<0.0313)) was “statistically significant reduction”, the “fasting blood glucose, fructosamine and insulin reduction rate, 6 months” value ([7]; all SID/TOD test groups, 0.025 mg/kg with insulin, up to 6 months) was “improved” and the “inhibitory effect on human SGLT2 activity” value (human SGLT2) was “excellent inhibitory effect”.
